# In ChEMBL document CHEMBL5214883, “Comprehensive review for anticancer hybridized multitargeting HDAC inhibitors” (Eur J Med Chem, 2021):
# Key:
# Histone deacetylase 1 [1] = target: T1, Histone deacetylase 1 (Homo sapiens, UniProt Q13547); experiment: Inhibition of HDAC1 in human HeLa cell nuclear extract using Bos-Lys(acetyl)-AMC as substrate preincubated for 5 mins followed by substrate addition incubated for 30 mins; format: cell-free
# [2] = target: T2, Epidermal growth factor receptor (Homo sapiens, UniProt P00533); experiment: Inhibition of EGFR wildtype (unknown origin) incubated for 40 mins in presence of ATP
# [3] = system: Epidermal growth factor receptor (Homo sapiens), P00533 [UNDEFINED MUTATION]; experiment: Inhibition of EGFR T790M (unknown origin) at 1 uM incubated for 40 mins in presence of ATP relative to control
# Tubulin = experiment: Inhibition of tubulin polymerization (unknown origin) incubated for 15 mins in presence of GTP by fluorescence-based tubulin polymerization assay kit; format: protein-complex assay, Homo sapiens
# Histone deacetylase 1 [4] = target: T1, Histone deacetylase 1; experiment: Inhibition of HDAC1 (unknown origin)
# Bcr/Abl fusion protein = Bcr/Abl fusion protein (Homo sapiens, UniProt P00519); experiment: Inhibition of Bcr-Abl (unknown origin); format: protein assay
# K562 = experiment: Cytotoxicity against human K562 cells
# DU-145 [5] = experiment: Cytotoxicity against human DU-145 cells
# A549 = experiment: Antiproliferative activity against human A549 cells incubated for 72 hrs by CCK-8 assay; format: functional, cell-based; conditions: A549, 72 h
# HepG2 = experiment: Antiproliferative activity against human HepG2 cells incubated for 72 hrs by CCK-8 assay; format: functional, cell-based; conditions: HepG2, 72 h
# MCF7 [6] = experiment: Antiproliferative activity against human MCF7 cells incubated for 72 hrs by CCK-8 assay; format: functional, cell-based; conditions: MCF7, 72 h
# PC-3 = experiment: Antiproliferative activity against human PC-3 cells incubated for 72 hrs by CCK-8 assay; format: functional, cell-based; conditions: PC-3, 72 h
# HeLa = experiment: Antiproliferative activity against human HeLa cells incubated for 72 hrs by CCK-8 assay; format: functional, cell-based
# Histone deacetylase = experiment: Inhibition of HDAC (unknown origin); format: protein assay, Homo sapiens
# [7] = target: cGMP-specific 3',5'-cyclic phosphodiesterase (Homo sapiens, UniProt O76074); experiment: Inhibition of PDE5 (unknown origin) incubated for 1.5 hrs by IMAP fluorescence polarization phosphodiesterase evaluation assay
# MCF7 [8] = experiment: Cytotoxicity against human MCF7 cells; format: functional, cell-based
# HCT-116 = experiment: In vivo antitumor activity against human HCT-116 cells xenografted in BALB/c nude mouse assessed as tumor growth inhibition at 150 mg/kg, po relative to control; format: functional; conditions: read-out: TGI
# DU-145 [9] = experiment: Antiproliferative activity against human DU-145 cells incubated for 48 hrs by Sulforhodamine B staining method; format: functional, cell-based; conditions: DU-145, 48 h
# [10] = target: T2, Epidermal growth factor receptor; experiment: Inhibition of EGFR (unknown origin)
# [11] = target: Vascular endothelial growth factor receptor 2 (Homo sapiens, UniProt P35968); experiment: Inhibition of VEGFR2 (unknown origin)
# [12] = target: T3, Protein deacetylase HDAC6 (Homo sapiens, UniProt Q9UBN7); experiment: Inhibition of HDAC6 (unknown origin) using fluorogenic substrate incubated for 30 mins by fluorometric drug discovery assay kit method
# T3 sequence (Q9UBN7 whole entry): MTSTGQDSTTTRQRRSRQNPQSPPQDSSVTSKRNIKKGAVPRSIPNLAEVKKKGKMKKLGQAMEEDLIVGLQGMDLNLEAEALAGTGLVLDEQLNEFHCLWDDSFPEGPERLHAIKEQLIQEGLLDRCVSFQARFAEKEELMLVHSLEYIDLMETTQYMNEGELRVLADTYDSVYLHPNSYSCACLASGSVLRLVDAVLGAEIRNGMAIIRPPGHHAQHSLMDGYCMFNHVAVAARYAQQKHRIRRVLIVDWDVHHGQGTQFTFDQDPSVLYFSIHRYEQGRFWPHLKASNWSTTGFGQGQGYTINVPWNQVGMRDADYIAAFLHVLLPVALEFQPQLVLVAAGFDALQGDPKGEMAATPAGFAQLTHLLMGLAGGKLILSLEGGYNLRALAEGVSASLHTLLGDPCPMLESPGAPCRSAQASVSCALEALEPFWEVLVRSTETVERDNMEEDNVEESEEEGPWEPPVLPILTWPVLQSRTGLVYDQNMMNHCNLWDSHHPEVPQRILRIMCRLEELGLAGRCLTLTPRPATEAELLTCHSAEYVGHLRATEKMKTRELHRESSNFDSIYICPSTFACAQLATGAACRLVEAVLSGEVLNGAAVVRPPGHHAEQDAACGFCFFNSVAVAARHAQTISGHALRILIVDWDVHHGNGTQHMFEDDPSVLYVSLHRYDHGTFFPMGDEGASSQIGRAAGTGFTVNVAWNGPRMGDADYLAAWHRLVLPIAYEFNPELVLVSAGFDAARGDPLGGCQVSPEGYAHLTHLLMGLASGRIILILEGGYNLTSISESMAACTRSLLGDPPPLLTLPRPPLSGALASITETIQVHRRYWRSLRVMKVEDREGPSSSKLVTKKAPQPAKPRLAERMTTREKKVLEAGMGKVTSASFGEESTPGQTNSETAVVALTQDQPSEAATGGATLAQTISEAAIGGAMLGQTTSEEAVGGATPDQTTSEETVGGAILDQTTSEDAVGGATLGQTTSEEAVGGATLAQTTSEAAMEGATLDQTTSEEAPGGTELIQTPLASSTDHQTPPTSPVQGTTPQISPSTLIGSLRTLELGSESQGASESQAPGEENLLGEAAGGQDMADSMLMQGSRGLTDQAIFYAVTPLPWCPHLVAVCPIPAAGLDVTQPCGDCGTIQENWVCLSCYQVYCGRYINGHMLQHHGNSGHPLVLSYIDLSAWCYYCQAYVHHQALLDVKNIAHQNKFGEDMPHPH
# [13] = target: T3, Protein deacetylase HDAC6; experiment: Inhibition of HDAC6 (unknown origin)
# Histone deacetylase 8 = Histone deacetylase 8 (Homo sapiens, UniProt Q9BY41); experiment: Inhibition of HDAC8 (unknown origin)
# [14] = target: Histone-lysine N-methyltransferase EZH2 (Homo sapiens, UniProt Q15910); experiment: Inhibition of EZH2 (unknown origin)
# Histone-lysine N-methyltransferase EZH2, sequence (Q15910 whole entry): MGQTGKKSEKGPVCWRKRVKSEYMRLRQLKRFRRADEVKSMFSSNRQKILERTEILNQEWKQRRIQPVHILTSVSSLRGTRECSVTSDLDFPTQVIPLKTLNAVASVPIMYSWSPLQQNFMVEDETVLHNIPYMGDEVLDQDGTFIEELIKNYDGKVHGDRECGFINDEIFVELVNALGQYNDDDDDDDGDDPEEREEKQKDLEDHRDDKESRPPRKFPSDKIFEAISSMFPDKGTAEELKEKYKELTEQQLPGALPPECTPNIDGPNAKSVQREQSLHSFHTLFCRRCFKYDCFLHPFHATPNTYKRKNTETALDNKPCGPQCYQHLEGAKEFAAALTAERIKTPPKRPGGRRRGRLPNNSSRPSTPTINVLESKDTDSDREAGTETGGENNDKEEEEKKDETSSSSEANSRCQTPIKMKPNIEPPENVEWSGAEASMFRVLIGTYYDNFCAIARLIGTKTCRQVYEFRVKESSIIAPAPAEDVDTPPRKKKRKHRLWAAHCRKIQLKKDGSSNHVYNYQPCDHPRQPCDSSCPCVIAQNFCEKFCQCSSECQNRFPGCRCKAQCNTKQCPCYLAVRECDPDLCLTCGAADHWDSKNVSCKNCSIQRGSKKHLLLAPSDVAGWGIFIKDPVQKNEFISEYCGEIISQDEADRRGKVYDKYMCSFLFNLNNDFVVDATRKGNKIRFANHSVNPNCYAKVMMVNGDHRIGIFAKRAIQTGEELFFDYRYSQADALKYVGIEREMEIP
# T1 sequence (Q13547 whole entry): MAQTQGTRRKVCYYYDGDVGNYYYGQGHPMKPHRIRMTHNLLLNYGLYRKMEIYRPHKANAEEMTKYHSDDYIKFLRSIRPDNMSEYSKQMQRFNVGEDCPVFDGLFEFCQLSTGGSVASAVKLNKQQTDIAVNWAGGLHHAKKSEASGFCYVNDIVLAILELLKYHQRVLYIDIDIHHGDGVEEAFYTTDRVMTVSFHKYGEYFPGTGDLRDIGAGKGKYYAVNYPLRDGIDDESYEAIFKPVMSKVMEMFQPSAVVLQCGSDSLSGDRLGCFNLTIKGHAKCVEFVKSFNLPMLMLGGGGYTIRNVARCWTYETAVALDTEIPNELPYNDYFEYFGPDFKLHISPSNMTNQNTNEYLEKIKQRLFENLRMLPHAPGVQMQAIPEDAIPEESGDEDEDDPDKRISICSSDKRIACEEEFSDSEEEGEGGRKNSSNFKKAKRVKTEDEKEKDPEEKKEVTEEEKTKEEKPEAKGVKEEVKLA
# Epidermal growth factor receptor (Homo sapiens), P00533 [UNDEFINED MUTATION], sequence (P00533 whole entry, looked up, stated change not applied): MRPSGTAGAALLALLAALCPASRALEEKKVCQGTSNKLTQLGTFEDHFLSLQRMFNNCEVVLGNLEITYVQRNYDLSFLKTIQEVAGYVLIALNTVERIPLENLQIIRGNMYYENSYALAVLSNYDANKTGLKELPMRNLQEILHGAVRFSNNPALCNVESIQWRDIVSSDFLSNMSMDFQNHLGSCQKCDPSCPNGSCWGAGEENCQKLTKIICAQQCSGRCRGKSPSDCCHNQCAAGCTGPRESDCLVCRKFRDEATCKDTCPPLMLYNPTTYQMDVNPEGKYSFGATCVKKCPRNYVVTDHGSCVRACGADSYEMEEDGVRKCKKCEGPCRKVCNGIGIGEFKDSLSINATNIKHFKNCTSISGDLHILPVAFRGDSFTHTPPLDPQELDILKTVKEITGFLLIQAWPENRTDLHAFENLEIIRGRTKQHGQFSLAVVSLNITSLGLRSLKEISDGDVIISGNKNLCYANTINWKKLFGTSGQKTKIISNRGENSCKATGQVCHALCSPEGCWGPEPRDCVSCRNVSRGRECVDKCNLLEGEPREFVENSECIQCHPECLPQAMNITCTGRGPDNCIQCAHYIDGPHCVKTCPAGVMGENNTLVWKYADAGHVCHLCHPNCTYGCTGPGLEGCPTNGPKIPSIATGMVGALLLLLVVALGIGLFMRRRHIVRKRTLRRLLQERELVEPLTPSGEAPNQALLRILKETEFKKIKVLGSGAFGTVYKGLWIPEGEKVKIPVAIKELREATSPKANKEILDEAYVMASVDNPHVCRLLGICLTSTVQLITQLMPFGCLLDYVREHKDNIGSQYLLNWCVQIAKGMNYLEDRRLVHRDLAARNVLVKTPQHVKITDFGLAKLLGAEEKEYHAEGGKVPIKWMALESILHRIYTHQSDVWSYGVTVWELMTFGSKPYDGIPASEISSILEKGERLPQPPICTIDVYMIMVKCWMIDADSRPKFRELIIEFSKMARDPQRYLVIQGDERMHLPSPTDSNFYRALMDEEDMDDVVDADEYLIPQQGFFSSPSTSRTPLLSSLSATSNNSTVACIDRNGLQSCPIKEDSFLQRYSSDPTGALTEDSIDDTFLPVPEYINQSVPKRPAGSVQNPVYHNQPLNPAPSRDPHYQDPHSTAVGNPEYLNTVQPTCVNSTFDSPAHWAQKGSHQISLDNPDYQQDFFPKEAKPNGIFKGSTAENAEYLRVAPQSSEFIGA
# T2 sequence (P00533 whole entry): as the sequence (P00533 whole entry, looked up, stated change not applied) above
# Histone deacetylase 8, sequence (Q9BY41 whole entry): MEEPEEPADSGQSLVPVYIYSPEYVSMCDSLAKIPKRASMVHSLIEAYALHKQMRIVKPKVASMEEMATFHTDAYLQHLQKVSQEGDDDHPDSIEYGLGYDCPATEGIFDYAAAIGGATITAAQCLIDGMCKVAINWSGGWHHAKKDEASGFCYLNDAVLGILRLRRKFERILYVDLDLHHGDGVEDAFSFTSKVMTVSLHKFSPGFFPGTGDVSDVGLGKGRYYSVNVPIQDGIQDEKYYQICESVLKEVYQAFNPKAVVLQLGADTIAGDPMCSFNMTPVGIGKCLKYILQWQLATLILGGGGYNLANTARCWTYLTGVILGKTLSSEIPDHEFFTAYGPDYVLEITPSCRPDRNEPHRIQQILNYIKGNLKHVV
smiles,measurement,setting,value
COc1cc(NC(=O)CCCCCCC(=O)NO)ccc1Nc1nccc(-c2cn(C)c3ccccc23)n1,IC50,Histone deacetylase 1 [1],85 nM
same,IC50,[2],5.9 µM
same,inhibition,[3],15%
C[C@H]1COc2c(N3CCN(C)CC3)c(F)cc3c(=O)c(C(=O)OCc4cn(CCCCCC(=O)NO)nn4)cn1c23,IC50,Tubulin,5.45 µM
CCN1CCN(c2cc(Nc3ncc(C(=O)Nc4ccc(F)cc4N)s3)nc(C)n2)CC1,IC50,Histone deacetylase 1 [4],810 nM
same,IC50,Bcr/Abl fusion protein,17.8 µM
same,IC50,K562,2620 nM
same,IC50,DU-145 [5],0.6 µM
C[C@H]1COc2c(N3CCN(C)CC3)c(F)cc3c(=O)c(C(=O)O)cn1c23 [LEVOFLOXACIN],IC50,A549,> 70 µM
same,IC50,HepG2,> 70 µM
same,IC50,MCF7 [6],> 70 µM
same,IC50,PC-3,> 70 µM
same,IC50,HeLa,> 70 µM
same,IC50,Tubulin,11.3 µM
Cn1cc(-c2ccnc(Nc3ccc(NC(=O)CCCCCC(=O)NO)cc3)n2)c2ccccc21,IC50,Histone deacetylase 1 [1],23 nM
same,inhibition,[3],35%
C[C@H]1COc2c(N3CCN(C)CC3)c(F)cc3c(=O)c(C(=O)NCc4cn(CCCCCCCC(=O)NO)nn4)cn1c23,IC50,Tubulin,6.68 µM
CNC(=O)c1cc(Oc2ccc(NC(=O)c3cccnc3)cc2)ccc1N,IC50,Histone deacetylase,5.23 µM
O=C(O)CCN1CC(=O)N2[C@H](CC3c4ccccc4NC3[C@H]2c2ccc(Br)cc2)C1=O (stereo not given in full),IC50,[7],2 nM
COc1cc2/c(=N/c3ccc(Br)cc3F)nc[nH]c2cc1OCC1CCN(C)CC1 [VANDETANIB],IC50,MCF7 [8],18.5 µM
same,IC50,Histone deacetylase,> 10 µM
CN1c2ccccc2C(=O)N2[C@H](C(=O)Nc3ccc(C(=O)Nc4ccccc4N)cc3)Cc3c([nH]c4ccccc34)[C@@H]12,inhibition in vivo at 150 mg/kg,HCT-116,75.2%
O=C(CCCCCCC(=O)Nc1ccccc1)NO [VORINOSTAT],IC50,DU-145 [9],790 nM
same,IC50,[10],12 nM
same,IC50,[11],> 10 µM
CN(C)c1nc2c(Br)c(Br)c(Br)c(Br)c2n1CCCCCC(=O)NO,IC50,[12],860 nM
CCN1CCN(c2cc(Nc3ncc(C(=O)Nc4ccccc4N)s3)nc(C)n2)CC1,IC50,Histone deacetylase 1 [4],150 nM
same,IC50,Bcr/Abl fusion protein,21.2 µM
same,IC50,K562,2560 nM
same,IC50,DU-145 [5],5.79 µM
C[C@H]1COc2c(N3CCN(C)CC3)c(F)cc3c(=O)c(C(=O)OCc4cn(CCCCCCCC(=O)NO)nn4)cn1c23,IC50,Tubulin,6.63 µM
CN(CCOc1no[n+]([O-])c1S(=O)(=O)c1ccccc1)C(=O)c1ccc(/C=C/C(=O)NO)cc1,IC50,[13],160 nM
same,IC50,Histone deacetylase 8,260 nM
C[C@H]1COc2c(N3CCN(C)CC3)c(F)cc3c(=O)c(C(=O)OCc4cn(CCCCCCC(=O)NO)nn4)cn1c23,IC50,Tubulin,1.84 µM
CNC(=O)c1cc(Oc2ccc(NC(=O)c3cccc(O)c3)cc2)ccc1N,IC50,Histone deacetylase,1.95 µM
CNC(=O)c1cc(Oc2ccc(NC(=O)c3cccc(N)c3)cc2)ccc1N,IC50,Histone deacetylase,1.03 µM
CNC(=O)c1cc(Oc2ccc(NC(=O)c3ccc4ccccc4c3)cc2)ccc1N,IC50,Histone deacetylase,8.21 µM
Cc1cc(C)c(CNC(=O)c2cnn(-c3ccccc3)c2C)c(=O)[nH]1,IC50,[14],5.78 µM
CNC(=O)c1cc(Oc2ccc(NC(=O)c3ccc(N)cc3)cc2)ccc1N,IC50,Histone deacetylase,2.27 µM
NC(=O)c1cc(Oc2ccc(NC(=O)c3ccc(Cl)c(C(F)(F)F)c3)cc2)ccc1N,IC50,Histone deacetylase,2.79 µM
